Assay results as given in ChEMBL document CHEMBL1201862, “PubChem BioAssay data set” (2004).
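Results reflect a 48-hour exposure of cells in 96-well plates to compound at five concentrations. Abbreviation: GI50, concentration required for 50% inhibition of growth.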 Activity calls are given as the source filed them. Rule as the data show it: active = GI50 up to about 1.1 µM and inactive = higher. Where a SMILES comes first, the peptide text is derived from it. [ ]: non-standard residue; d: D form. The star is where a group is joined. Bn2Val = CC(C)[C@@H](C(=O)*)N(Cc1ccccc1)Cc1ccccc1; NH(3,4-diMeO-benzyl) = COc1ccc(CN*)cc1OC; NMeV = CN[C@H](C(=O)O)C(C)C

Tests used:
Assay in all cases: NCI tumour cell line growth inhibition, 48 h
SR = tested on: SR
DU-145 = tested on: DU-145
A498 = tested on: A498
PC-3 = tested on: PC-3
A549 = tested on: A549
SK-MEL-28 = tested on: SK-MEL-28
UO-31 = tested on: UO-31
M14 = tested on: M14
OVCAR-8 = tested on: OVCAR-8
SK-OV-3 = tested on: SK-OV-3
SF-268 = tested on: SF-268
NCI-H23 = tested on: NCI-H23
SW-620 = tested on: SW-620
K562 = tested on: K562
SN12C = tested on: SN12C
LOX IMVI = tested on: LOX IMVI
NCI-H460 = tested on: NCI-H460
NCI-H522 = tested on: NCI-H522
OVCAR-4 = tested on: OVCAR-4
HCC 2998 = tested on: HCC 2998

Measured: GI50

O=C(Cn1c2ccc(Br)cc2c2nc3ccccc3nc21)N/N=C/c1ccccc1
inactive: SR 78.2 µM | DU-145 > 100 µM | A498 > 100 µM | PC-3 > 100 µM | A549 > 100 µM | SK-MEL-28 > 100 µM | UO-31 > 100 µM | M14 > 100 µM | OVCAR-8 > 100 µM | SK-OV-3 31.1 µM | SF-268 87.3 µM | NCI-H23 > 100 µM | SW-620 > 100 µM | K562 43.4 µM | SN12C > 100 µM

COc1ccc(CNC(=O)[C@@H]2CCCN2C(=O)[C@@H]2CCCN2C(=O)[C@H](C(C)C)N(C)C(=O)[C@@H](NC(=O)[C@H](C(C)C)N(Cc2ccccc2)Cc2ccccc2)C(C)C)cc1OC (Bn2Val-V[NMeV]PP-{NH(3,4-diMeO-benzyl)})
inactive: SR 4.54 µM | LOX IMVI 4.26 µM | DU-145 14.8 µM | A498 17.8 µM | PC-3 6.15 µM | A549 11.7 µM | SK-MEL-28 16.9 µM | M14 14.6 µM | OVCAR-8 14.5 µM | NCI-H460 13.5 µM | SK-OV-3 16.9 µM | SF-268 21.3 µM | NCI-H522 8.85 µM | NCI-H23 18.9 µM | SW-620 12.8 µM | K562 7.55 µM | OVCAR-4 18 µM | SN12C 15 µM

CCOC(=O)CCC(NC(=O)c1ccc(Oc2nc3ccccc3nc2C(=O)OCC)cc1)C(=O)OCC (configuration not stated)
inactive: SR > 100 µM | LOX IMVI > 100 µM | DU-145 > 100 µM | PC-3 > 100 µM | A549 > 100 µM | SK-MEL-28 > 100 µM | UO-31 > 100 µM | M14 > 100 µM | OVCAR-8 41.2 µM | NCI-H460 > 100 µM | SF-268 > 100 µM | NCI-H522 > 100 µM | NCI-H23 > 100 µM | SW-620 > 100 µM | OVCAR-4 > 100 µM | SN12C > 100 µM | HCC 2998 > 100 µM

COc1ccc(NC(=S)Nc2cc(C)cc(C)n2)cc1
inactive: SR > 100 µM | LOX IMVI > 100 µM | DU-145 > 100 µM | A498 > 100 µM | PC-3 > 100 µM | A549 > 100 µM | SK-MEL-28 > 100 µM | UO-31 > 100 µM | M14 > 100 µM | OVCAR-8 > 100 µM | NCI-H460 > 100 µM | SK-OV-3 > 100 µM | SF-268 > 100 µM | NCI-H522 > 100 µM | SW-620 > 100 µM | K562 > 100 µM | OVCAR-4 > 100 µM | SN12C > 100 µM

CCCCCCN1C(=O)CC(=O)N(CCCCCC)S1(=O)=O
inactive: SR 26.9 µM | LOX IMVI 13.6 µM | DU-145 65.8 µM | A498 14.7 µM | PC-3 23 µM | A549 35.2 µM | UO-31 1.56 µM | M14 32.4 µM | NCI-H460 31.5 µM | SK-OV-3 21.8 µM | SF-268 17.7 µM | NCI-H522 12.9 µM | NCI-H23 25.7 µM | SW-620 19.1 µM | K562 40.6 µM | OVCAR-4 20 µM | SN12C 17.7 µM

CCNC1=C(NC(=O)c2ccc(F)cc2)C(=O)c2ccccc2C1=O
inactive: SR 48.4 µM | DU-145 > 100 µM | PC-3 17.3 µM | A549 70.8 µM | SK-MEL-28 > 100 µM | M14 24.5 µM | OVCAR-8 32.7 µM | NCI-H460 50.1 µM | SK-OV-3 18.5 µM | SF-268 > 100 µM | NCI-H522 21 µM | NCI-H23 34.6 µM | SW-620 32.2 µM | K562 65.8 µM | OVCAR-4 40.1 µM | SN12C 38.7 µM | HCC 2998 34.8 µM

CC1CCCc2c(C#N)c(N)nc(-c3ccc(Cl)cc3)c21 (configuration not stated)
inactive: SR 42.2 µM | LOX IMVI 16.6 µM | DU-145 33.7 µM | A498 68.4 µM | PC-3 4.68 µM | SK-MEL-28 27.6 µM | UO-31 13.8 µM | M14 19.2 µM | OVCAR-8 31 µM | NCI-H460 22.8 µM | SK-OV-3 38.1 µM | SF-268 31.1 µM | NCI-H23 16.8 µM | SW-620 53.6 µM | K562 8.69 µM | SN12C 20.3 µM

O=C(OC1C2OC(=O)c3cc(O)c(O)c(O)c3Oc3cc4c(c(O)c3O)-c3c(cc(O)c(O)c3O)C(=O)OCC3OC(O)C(OC(=O)c5cc(O)c(O)c(O)c5Oc5cc6c(c(O)c5O)-c5c(cc(O)c(O)c5O)C(=O)OC1C(COC6=O)OC2O)C(OC(=O)c1cc(O)c(O)c(O)c1)C3OC4=O)c1cc(O)c(O)c(O)c1 (configuration not stated)
inactive: SR 4.61 µM | LOX IMVI 17.9 µM | DU-145 41 µM | PC-3 20 µM | A549 10.8 µM | SK-MEL-28 76.7 µM | UO-31 4.8 µM | M14 35.2 µM | OVCAR-8 27 µM | NCI-H460 3.52 µM | SK-OV-3 12.5 µM | SF-268 26.4 µM | NCI-H23 24.6 µM | SW-620 13.2 µM | K562 7.8 µM | OVCAR-4 17.8 µM | SN12C 26.7 µM

COC(=O)C(C(=O)C(=O)Nc1ccccc1C#N)c1nc2ccc([N+](=O)[O-])cc2nc1O (configuration not stated)
inactive: SR > 100 µM | LOX IMVI > 100 µM | DU-145 > 100 µM | PC-3 > 100 µM | A549 > 100 µM | SK-MEL-28 > 100 µM | UO-31 > 100 µM | M14 > 100 µM | OVCAR-8 > 100 µM | NCI-H460 > 100 µM | SK-OV-3 > 100 µM | SF-268 > 100 µM | NCI-H522 53.7 µM | NCI-H23 > 100 µM | SW-620 > 100 µM | OVCAR-4 53.3 µM | SN12C > 100 µM | HCC 2998 > 100 µM

COC(=O)C1=Nc2c(C)nn(-c3ccccc3)c2N=C(c2ccc(C)cc2)C1
inactive: SR > 10 µM | LOX IMVI > 10 µM | DU-145 > 10 µM | PC-3 > 10 µM | A549 > 10 µM | SK-MEL-28 > 10 µM | M14 > 10 µM | OVCAR-8 > 10 µM | SK-OV-3 > 10 µM | SF-268 > 10 µM | NCI-H522 > 10 µM | NCI-H23 > 10 µM | SW-620 > 10 µM | K562 > 10 µM | OVCAR-4 > 10 µM | SN12C > 10 µM | HCC 2998 > 10 µM

O=C1C(Cl)C(c2cccc(Cl)c2)N1c1ccc(-n2c(S)nc3ccccc3c2=O)cc1 (configuration not stated)
inactive: SR 10.7 µM | LOX IMVI 13.9 µM | DU-145 35.2 µM | PC-3 27.7 µM | A549 28.2 µM | UO-31 20 µM | M14 19.5 µM | OVCAR-8 37.3 µM | NCI-H460 16.5 µM | SK-OV-3 20.6 µM | SF-268 12.6 µM | NCI-H522 15.1 µM | NCI-H23 19.6 µM | SW-620 29.6 µM | K562 17.9 µM | OVCAR-4 13.6 µM | SN12C 15.8 µM | HCC 2998 14.4 µM

CC12OC3(C(O)C1O)C(C(=O)O[C@H]3CO[Si](C)(C)C(C)(C)C)C2S(=O)(=O)c1ccccc1 (some centres not stated)
inactive: SR 41.9 µM | LOX IMVI 18.7 µM | DU-145 > 100 µM | A498 > 100 µM | PC-3 26.9 µM | A549 45 µM | SK-MEL-28 56 µM | UO-31 40.8 µM | M14 51.2 µM | OVCAR-8 29.9 µM | NCI-H460 44.7 µM | SK-OV-3 > 100 µM | SF-268 47.4 µM | NCI-H522 17.5 µM | SW-620 81.5 µM | K562 37.8 µM | OVCAR-4 34 µM | SN12C > 100 µM

C/C(CC(O)(C(F)(F)Cl)C(F)(F)Cl)=N\Nc1ccccc1
inactive: SR 39.1 µM | LOX IMVI 27.5 µM | DU-145 49 µM | A498 40 µM | PC-3 22.2 µM | A549 37.2 µM | SK-MEL-28 47.2 µM | UO-31 31.2 µM | M14 29.4 µM | OVCAR-8 36.7 µM | NCI-H460 29.7 µM | SK-OV-3 29.4 µM | NCI-H522 28.5 µM | NCI-H23 19.3 µM | SW-620 31 µM | K562 35.5 µM | OVCAR-4 63.7 µM

CCOC(=O)C(NC(=O)NC(C(=O)OCC)C(=O)OCC)C(=O)OCC
inactive: SR > 100 µM | DU-145 > 100 µM | PC-3 > 100 µM | A549 > 100 µM | SK-MEL-28 > 100 µM | UO-31 > 100 µM | M14 > 100 µM | OVCAR-8 > 100 µM | NCI-H460 > 100 µM | SK-OV-3 > 100 µM | SF-268 > 100 µM | NCI-H522 > 100 µM | NCI-H23 > 100 µM | SW-620 > 100 µM | K562 > 100 µM | SN12C > 100 µM | HCC 2998 > 100 µM

COc1cc(S(=O)(=O)Nc2ccc(-c3csc(N)n3)cc2)ccc1Cl
inactive: SR 21.9 µM | LOX IMVI 18.7 µM | DU-145 18 µM | A498 18.2 µM | PC-3 15.3 µM | A549 18.4 µM | SK-MEL-28 21.3 µM | UO-31 19.8 µM | M14 18.6 µM | OVCAR-8 22.3 µM | SF-268 34.4 µM | NCI-H522 17.9 µM | NCI-H23 21.2 µM | SW-620 24.3 µM | K562 18.5 µM | OVCAR-4 14.1 µM | SN12C 18.3 µM
